# Test results: patent US20210032257A1, “(E)-1-(4-(DIMETHYLAMINO)BUT-2-ENOYL)PYRROLIDIN-3-YL 4-((3-ISOPROPYL-5-METHYLPYRAZOLO[1,5-A]PYRIMIDIN-7-YL)AMINO)PIPERIDINE-1-CARBOXYLATE FOR INHIBITING CDK7” (Eli Lilly and Company, priority 2017, published 2021)
# Tests used:
# Assay in all cases: Biomarker study proliferation (CellTiter-Glo)
# Type in all cases: cell-based
# HUH7 = tested on: HUH7
# Outline: (§1)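 Overnight-plated cells (5000/well, 37 °C, 5% CO2) receive compound diluted through an OPTIMEM + 10% FBS intermediate plate. After one week, CellTiter-Glo is added and luminescence is read.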
# HGC27 = tested on: HGC27
# Outline: as §1
# LI7 = tested on: LI7
# Outline: as §1
# UACC893 = tested on: UACC893
# Outline: as §1
# NCIH1703 = tested on: NCIH1703
# Outline: as §1
# NCIH1666 = tested on: NCIH1666
# Outline: as §1
# MKN1 = tested on: MKN1
# Outline: as §1
# HCC1143 = tested on: HCC1143
# Outline: as §1
# OV90 = tested on: OV90
# Outline: as §1
# KARPAS299 = tested on: KARPAS299
# Outline: as §1
# GL261 = tested on: GL261
# Outline: as §1
# MDAMB453 = tested on: MDAMB453
# Outline: as §1
# DU145 = tested on: DU145
# Outline: as §1
# SNU245 = tested on: SNU245
# Outline: as §1
# LS411N = tested on: LS411N
# Outline: as §1
# SW480 = tested on: SW480
# Outline: as §1
# HCC1569 = tested on: HCC1569
# Outline: as §1
# NCIH2347 = tested on: NCIH2347
# Outline: as §1
smiles,measurement,setting,value
"Cc1cc(NC2CCN(C(=O)O[C@H]3CCN(C(=O)/C=C/CN(C)C)C3)CC2)n2ncc(C(C)C)c2n1 [Example 1, [(3S)-1-[(E)-4-(dimethylamino)but-2-enoyl]pyrrolidin-3-yl] 4-[(3-isopropyl-5-methyl-pyrazolo[1,5-a]pyrimidin-7-yl)amino]piperidine-1-carboxylate]",Anti-proliferation effect % Inh.,"HUH7; HUH7, LIVER, 7 days",64%
same,Anti-proliferation effect Outcome,"HUH7; HUH7, LIVER, 7 days",Cytostatic (cytostatic (IC50<1 μM and % inhibition <70%))
same,IC50,"HUH7; Homo sapiens, Huh-7, 168 h, read-out: Anti-proliferation effect IC50",175 nM
same,Anti-proliferation effect % Inh.,"HGC27; HGC27, STOMACH, 7 days",78%
same,Anti-proliferation effect Outcome,"HGC27; HGC27, STOMACH, 7 days",Cytotoxic (cytotoxic (IC50<1 μM and % inhibition ≥70%))
same,IC50,"HGC27; Homo sapiens, HGC-27, 168 h, read-out: Anti-proliferation effect IC50",68 nM
same,Anti-proliferation effect % Inh.,"LI7; LI7, LIVER, 7 days",76%
same,Anti-proliferation effect Outcome,"LI7; LI7, LIVER, 7 days",Cytotoxic (cytotoxic (IC50<1 μM and % inhibition ≥70%))
same,IC50,"LI7; Li-7, 168 h, read-out: Anti-proliferation effect IC50",132 nM
same,IC50,"UACC893; Homo sapiens, UACC-893, 168 h, read-out: Anti-proliferation effect IC50",4.15 µM
same,Anti-proliferation effect % Inh.,"UACC893; UACC893, BREAST, 7 days",−51%
same,Anti-proliferation effect Outcome,"UACC893; UACC893, BREAST, 7 days",Insensitive (insensitive (IC50≥1 μM))
same,IC50,"NCIH1703; Homo sapiens, NCI-H1703, 168 h, read-out: Anti-proliferation effect IC50",40 nM
same,Anti-proliferation effect % Inh.,"NCIH1703; NCIH1703, LUNG, 7 days",92%
same,Anti-proliferation effect Outcome,"NCIH1703; NCIH1703, LUNG, 7 days",Cytotoxic (cytotoxic (IC50<1 μM and % inhibition ≥70%))
same,IC50,"NCIH1666; Homo sapiens, NCI-H1666, 168 h, read-out: Anti-proliferation effect IC50",161 nM
same,Anti-proliferation effect % Inh.,"NCIH1666; NCIH1666, LUNG, 7 days",59%
same,Anti-proliferation effect Outcome,"NCIH1666; NCIH1666, LUNG, 7 days",Cytostatic (cytostatic (IC50<1 μM and % inhibition <70%))
same,IC50,"MKN1; Homo sapiens, MKN-1, 168 h, read-out: Anti-proliferation effect IC50",23 nM
same,Anti-proliferation effect % Inh.,"MKN1; MKN1, STOMACH, 7 days",80%
same,Anti-proliferation effect Outcome,"MKN1; MKN1, STOMACH, 7 days",Cytotoxic (cytotoxic (IC50<1 μM and % inhibition ≥70%))
same,Anti-proliferation effect % Inh.,"HCC1143; HCC1143, BREAST, 7 days",37%
same,Anti-proliferation effect Outcome,"HCC1143; HCC1143, BREAST, 7 days",Insensitive (insensitive (IC50≥1 μM))
same,IC50,"HCC1143; Homo sapiens, HCC1143, 168 h, read-out: Anti-proliferation effect IC50",> 10 µM
same,IC50,"OV90; Homo sapiens, OV-90, 168 h, read-out: Anti-proliferation effect IC50",34 nM
same,Anti-proliferation effect % Inh.,"OV90; OV90, OVARY, 7 days",61%
same,Anti-proliferation effect Outcome,"OV90; OV90, OVARY, 7 days",Cytostatic (cytostatic (IC50<1 μM and % inhibition <70%))
same,IC50,"KARPAS299; Homo sapiens, KARPAS-299, 168 h, read-out: Anti-proliferation effect IC50",69 nM
same,Anti-proliferation effect % Inh.,"KARPAS299; KARPAS299, BLOOD, 7 days",78%
same,Anti-proliferation effect Outcome,"KARPAS299; KARPAS299, BLOOD, 7 days",Cytotoxic (cytotoxic (IC50<1 μM and % inhibition ≥70%))
same,Anti-proliferation effect % Inh.,"GL261; GL261, BRAIN, 7 days",85%
same,Anti-proliferation effect Outcome,"GL261; GL261, BRAIN, 7 days",Cytotoxic (cytotoxic (IC50<1 μM and % inhibition ≥70%))
same,IC50,"GL261; Mus musculus, GL261, 168 h, read-out: Anti-proliferation effect IC50",38 nM
same,IC50,"MDAMB453; Homo sapiens, MDA-MB-453, 168 h, read-out: Anti-proliferation effect IC50",39 nM
same,Anti-proliferation effect % Inh.,"MDAMB453; MDAMB453, BREAST, 7 days",56%
same,Anti-proliferation effect Outcome,"MDAMB453; MDAMB453, BREAST, 7 days",Cytostatic (cytostatic (IC50<1 μM and % inhibition <70%))
same,Anti-proliferation effect % Inh.,"DU145; DU145, PROSTATE, 7 days",74%
same,Anti-proliferation effect Outcome,"DU145; DU145, PROSTATE, 7 days",Cytotoxic (cytotoxic (IC50<1 μM and % inhibition ≥70%))
same,IC50,"DU145; Homo sapiens, DU-145, 168 h, read-out: Anti-proliferation effect IC50",36 nM
same,IC50,"SNU245; 168 h, read-out: Anti-proliferation effect IC50",1090 nM
same,Anti-proliferation effect % Inh.,"SNU245; SNU245, BILIARY, 7 days",−5%
same,Anti-proliferation effect Outcome,"SNU245; SNU245, BILIARY, 7 days",Insensitive (insensitive (IC50≥1 μM))
same,IC50,"LS411N; Homo sapiens, LS-411N, 168 h, read-out: Anti-proliferation effect IC50",1000 nM
same,Anti-proliferation effect % Inh.,"LS411N; LS411N, INTESTINE, 7 days",45%
same,Anti-proliferation effect Outcome,"LS411N; LS411N, INTESTINE, 7 days",Insensitive (insensitive (IC50≥1 μM))
same,IC50,"SW480; Homo sapiens, SW480, 168 h, read-out: Anti-proliferation effect IC50",36 nM
same,Anti-proliferation effect % Inh.,"SW480; SW480, INTESTINE, 7 days",90%
same,Anti-proliferation effect Outcome,"SW480; SW480, INTESTINE, 7 days",Cytotoxic (cytotoxic (IC50<1 μM and % inhibition ≥70%))
same,Anti-proliferation effect % Inh.,"HCC1569; HCC1569, BREAST, 7 days",45%
same,Anti-proliferation effect Outcome,"HCC1569; HCC1569, BREAST, 7 days",Cytostatic (cytostatic (IC50<1 μM and % inhibition <70%))
same,IC50,"HCC1569; Homo sapiens, HCC1569, 168 h, read-out: Anti-proliferation effect IC50",67 nM
same,IC50,"NCIH2347; Homo sapiens, NCI-H2347, 168 h, read-out: Anti-proliferation effect IC50",661 nM
same,Anti-proliferation effect % Inh.,"NCIH2347; NCIH2347, LUNG, 7 days",45%
same,Anti-proliferation effect Outcome,"NCIH2347; NCIH2347, LUNG, 7 days",Cytostatic (cytostatic (IC50<1 μM and % inhibition <70%))
